The results in this text go back to patent US10570121B2, “Substituted dihydroisoquinolinone compounds” (priority 2014, dated 2020).

The structures appear in SMILES notation. Where two headings read alike, the source gives them in different places.

What all share (assay type): biochemical
Experiment [1] deals with T1, WT EZH2 (Homo sapiens (Human), UniProt Q15910). As to the kind of experiment: WT EZH2 nucleosome assay. Particulars: PRC2 4-protein complex 4 nM, 1.5 μM SAM, HeLa oligonucleosomes. How it is done:
The genes for EZH2, EED, SUZ12, and RBBP4 proteins were cloned into pBacPAK9 vectors (Clontech). RBBP4 was FLAG tagged on the N-terminal end. The baculovirus expressions of these proteins were used to co-infect SF9 insect cells. Insect cell pellets were lysed in a buffer containing 25 mM Tris pH8.0, 300 mM NaCl, 0.5 mM TCEP, complete EDTA-free protease inhibitor (Roche), 0.1% NP-40. The supernatant from the lysate was incubated with FLAG® M2 antibody resin (Sigma). The resin was washed on the chromatography column and eluted with 0.2 mg/ml FLAG peptide. The elute was incubated with omnicleave nucleases (Epicentre Technologies) at 4° C. overnight, then concentrated and loaded onto a Superdex 200 (GE Healthcare) column. The Superdex 200 column was eluted with 25 mM Tris pH8.0, 150 mM NaCl, 0.5 mM TCEP. Fractions containing the PRC2 complex were pooled.
A. Compound preparation • 1.
B. Reagent preparation • 1. […] Dilute TCA to 20% in DI water
C. Enzyme reaction • 1. […] Some compounds were tested under high SAM conditions.
D. Data analysis • 1. IC50 values were determined by fitting the data to a 4-parameter IC50 equation using proprietary curve fitting software. • 2. For compounds tested under high SAM conditions, Ki^app values were obtained by fitting the dose response curve to a model for competitive inhibition using proprietary curve fitting software. Preparation of HeLa Oligonucleosomes: Reagents • Cell Pellet: 15 L HeLa S3 (Accelgen)+6 L HeLa S3 (in house) • Mnase (Worthington Biochemicals) Equipment • SW-28 Rotor • Dounce Homogenizer/B Pestle Buffers • Lysis: 20 mM Hepes pH 7.5, 0.25M Sucrose, 3 mM MgCl2, 0.5% Nonidet P-40, 0.5 mM TCEP, 1 Roche Protease Tablet • B: 20 mM Hepes pH7.5, 3 mM MgCl2, 0.5 mM EDTA, 0.5 mM TCEP, 1 Roche Protease Tablet • MSB: 20 mM Hepes pH7.5, 0.4 M NaCl, 1 mM EDTA, 5% v/v Glycerol, 0.5 mM TCEP, 0.2 mM PMSF • LSB: 20 mM Hepes pH7.5, 0.1M NaCl, 1 mM EDTA, 0.5 mM TCEP, 0.2 mM PMSF • NG: 20 mM Hepes pH7.5, 1 mM EDTA, 0.4 m NaCl, 0.2 mM PMSF, 0.5 mM TCEP • Storage: 20 mM Hepes pH7.5, 1 mM EDTA, 10% Glycerol, 0.2 mM PMSF, 0.5 mM TCEP Protocol

Another experiment has as its target EZH2 Mutant Y641N (Homo sapiens (Human), UniProt Q15910, Y641N). As to the kind of experiment: EZH2 Mutant Y641N nucleosome assay. Particulars: PRC2 4-protein complex 6 nM, 1.5 μM SAM, HeLa oligonucleosomes.
Experiment [2] addresses T1, WT EZH2. Nature of the experiment: WT EZH2 nucleosome assay (10X SAM, high SAM conditions). Particulars: 15 uM SAM, Ki app from competitive inhibition fit.
Setting [3] is: read-out: WT EZH2 Nucleosome assay IC50.
The mark [4] stands for this setting: read-out: EZH2 Mutant Y641N Nucleosome assay IC50.
Where [5] appears, read: WT EZH2 Nucleosome assay IC50 (μM).
The mark [6] stands for this setting: EZH2 Mutant Y641N Nucleosome assay IC50 (μM).
[7] abbreviates: read-out: WT EZH2 Nucleosome assay (10X SAM) Ki.

T1 sequence (Q15910 whole entry, looked up): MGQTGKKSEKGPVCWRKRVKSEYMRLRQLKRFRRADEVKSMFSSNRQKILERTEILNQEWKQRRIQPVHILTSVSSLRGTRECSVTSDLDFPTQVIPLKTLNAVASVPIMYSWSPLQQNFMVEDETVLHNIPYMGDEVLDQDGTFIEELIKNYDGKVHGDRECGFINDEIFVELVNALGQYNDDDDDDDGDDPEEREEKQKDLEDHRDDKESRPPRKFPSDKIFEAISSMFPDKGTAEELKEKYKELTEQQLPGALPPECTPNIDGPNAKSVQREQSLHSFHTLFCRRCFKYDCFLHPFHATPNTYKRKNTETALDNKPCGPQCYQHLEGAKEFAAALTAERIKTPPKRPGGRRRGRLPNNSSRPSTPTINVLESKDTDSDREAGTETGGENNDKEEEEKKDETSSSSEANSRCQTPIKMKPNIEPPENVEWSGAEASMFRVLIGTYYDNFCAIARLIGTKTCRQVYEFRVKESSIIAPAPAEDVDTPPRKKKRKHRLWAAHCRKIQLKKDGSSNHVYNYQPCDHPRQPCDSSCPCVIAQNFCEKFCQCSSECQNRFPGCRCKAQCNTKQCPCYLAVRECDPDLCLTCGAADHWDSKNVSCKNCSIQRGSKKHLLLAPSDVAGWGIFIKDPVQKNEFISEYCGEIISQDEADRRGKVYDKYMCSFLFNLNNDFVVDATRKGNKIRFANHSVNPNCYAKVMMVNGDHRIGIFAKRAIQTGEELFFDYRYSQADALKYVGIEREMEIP
T1 sequence (O75530 whole entry partner, looked up): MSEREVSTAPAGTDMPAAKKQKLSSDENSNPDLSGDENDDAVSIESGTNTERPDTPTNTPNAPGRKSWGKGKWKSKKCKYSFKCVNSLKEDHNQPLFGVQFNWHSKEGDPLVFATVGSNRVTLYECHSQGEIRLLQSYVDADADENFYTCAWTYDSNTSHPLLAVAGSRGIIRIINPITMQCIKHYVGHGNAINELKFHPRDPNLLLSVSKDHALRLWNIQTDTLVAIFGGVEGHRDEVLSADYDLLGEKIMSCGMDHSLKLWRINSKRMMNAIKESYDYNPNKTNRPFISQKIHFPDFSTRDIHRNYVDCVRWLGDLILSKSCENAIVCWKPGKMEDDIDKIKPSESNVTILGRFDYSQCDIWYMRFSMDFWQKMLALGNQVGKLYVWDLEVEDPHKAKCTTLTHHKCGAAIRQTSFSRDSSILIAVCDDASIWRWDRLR
T1 sequence (Q15022 whole entry partner, looked up): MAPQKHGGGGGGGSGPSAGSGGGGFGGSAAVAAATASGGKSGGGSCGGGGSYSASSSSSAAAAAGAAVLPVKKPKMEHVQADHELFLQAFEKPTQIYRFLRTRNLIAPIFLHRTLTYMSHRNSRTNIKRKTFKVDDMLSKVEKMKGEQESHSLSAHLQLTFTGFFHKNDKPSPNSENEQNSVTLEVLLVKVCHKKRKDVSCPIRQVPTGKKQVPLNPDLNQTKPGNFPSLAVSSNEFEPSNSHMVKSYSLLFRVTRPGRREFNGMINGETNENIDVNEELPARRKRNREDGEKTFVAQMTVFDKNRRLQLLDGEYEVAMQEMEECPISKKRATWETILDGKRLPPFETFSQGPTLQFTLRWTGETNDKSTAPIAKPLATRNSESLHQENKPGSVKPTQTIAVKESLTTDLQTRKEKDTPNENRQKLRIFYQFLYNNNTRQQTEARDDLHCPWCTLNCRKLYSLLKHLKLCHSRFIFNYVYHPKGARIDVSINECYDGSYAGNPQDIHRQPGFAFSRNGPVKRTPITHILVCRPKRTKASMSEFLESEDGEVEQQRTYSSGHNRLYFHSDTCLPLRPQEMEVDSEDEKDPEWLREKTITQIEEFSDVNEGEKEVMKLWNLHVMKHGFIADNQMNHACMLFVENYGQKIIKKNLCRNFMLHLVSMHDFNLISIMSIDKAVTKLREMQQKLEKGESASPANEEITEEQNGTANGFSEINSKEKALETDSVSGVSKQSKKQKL
T1 sequence (Q09028 whole entry partner, looked up): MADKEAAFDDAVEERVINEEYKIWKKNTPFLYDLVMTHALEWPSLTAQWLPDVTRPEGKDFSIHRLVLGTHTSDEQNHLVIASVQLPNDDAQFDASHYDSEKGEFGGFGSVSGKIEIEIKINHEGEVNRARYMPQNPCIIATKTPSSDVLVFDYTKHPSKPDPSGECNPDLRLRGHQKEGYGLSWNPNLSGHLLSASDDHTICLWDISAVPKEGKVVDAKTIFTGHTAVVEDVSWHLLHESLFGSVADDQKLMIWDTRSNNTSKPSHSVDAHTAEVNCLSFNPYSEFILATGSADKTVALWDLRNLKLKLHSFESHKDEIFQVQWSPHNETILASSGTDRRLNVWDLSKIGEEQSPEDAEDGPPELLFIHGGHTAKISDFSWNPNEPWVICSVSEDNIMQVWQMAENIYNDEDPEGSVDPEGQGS
EZH2 Mutant Y641N, sequence (Q15910 whole entry Y641N, looked up): as the sequence (Q15910 whole entry, looked up) above, with Y641N counted along it
EZH2 Mutant Y641N, sequence (O75530 whole entry partner, looked up): as the sequence (O75530 whole entry partner, looked up) above
EZH2 Mutant Y641N, sequence (Q15022 whole entry partner, looked up): as the sequence (Q15022 whole entry partner, looked up) above
EZH2 Mutant Y641N, sequence (Q09028 whole entry partner, looked up): as the sequence (Q09028 whole entry partner, looked up) above

As for `Cc1cc(C)c(CN2CCc3c(Cl)cc(C(C)C#N)c(Cl)c3C2=O)c(=O)[nH]1` (racemic) [Example 32], the IC50 came to 0.093 µM at WT EZH2 [1] (setting [3]) and 1.13 µM on EZH2 Mutant Y641N (setting [4]).
The matching figures for `Cc1cc(C)c(CN2CCc3c(Cl)cc(C(C)CCO)c(Cl)c3C2=O)c(=O)[nH]1` (racemic) [Example 33]: 0.012 µM and 0.07 µM.
Take `Cc1cc(C)c(CN2CCc3c(Cl)cc([C@H](CO)[C@@H]4CCOC4)c(Cl)c3C2=O)c(=O)[nH]1` (single isomer, unassigned) [Example 2, 5,8-dichloro-2-[(4,6-dimethyl-2-oxo-1,2-dihydropyridin-3-yl)methyl]-7-{(1R*)-2-hydroxy-1-[(3S*)-tetrahydrofuran-3-yl]ethyl}-3,4-dihydroisoquinolin-1(2H)-one]: the IC50 against WT EZH2 [1] (setting [5]) amounted to 0.002 µM; against EZH2 Mutant Y641N (setting [6]), 0.004 µM.
As to `COC(CO)c1cc(Cl)c2c(c1Cl)C(=O)N(Cc1c(C)cc(C)[nH]c1=O)CC2` (single isomer, unassigned) [Example 10, 5,8-dichloro-2-[(4,6-dimethyl-2-oxo-1,2-dihydropyridin-3-yl)methyl]-7-(2-hydroxy-1-methoxyethyl)-3,4-dihydroisoquinolin-1(2H)-one], the IC50 on WT EZH2 [1] (setting [3]) is 0.326 µM; at EZH2 Mutant Y641N (setting [4]) it was 1.98 µM.
Taken in the same sequence, the figures for `COC(CO)c1cc(Cl)c2c(c1Cl)C(=O)N(Cc1c(C)cc(C)[nH]c1=O)CC2` (single isomer, unassigned) [Example 11, 5,8-dichloro-2-[(4,6-dimethyl-2-oxo-1,2-dihydropyridin-3-yl)methyl]-7-(2-hydroxy-1-methoxyethyl)-3,4-dihydroisoquinolin-1(2H)-one] were 0.038 µM and 0.174 µM.
Turning to `CCC(O)c1cc(Cl)c2c(c1Cl)C(=O)N(Cc1c(C)cc(C)[nH]c1=O)CC2` (single isomer, unassigned) [Example 27], the IC50 on WT EZH2 [1] (setting [5]) is 0.037 µM; on EZH2 Mutant Y641N (setting [6]) it was 0.3 µM.
The matching figures for `CCC(O)c1cc(Cl)c2c(c1Cl)C(=O)N(Cc1c(C)cc(C)[nH]c1=O)CC2` (single isomer, unassigned) [Example 28]: 0.126 µM and 1.89 µM.
The matching figures for `CCC(CO)c1cc(Cl)c2c(c1Cl)C(=O)N(Cc1c(C)cc(C)[nH]c1=O)CC2` (single isomer, unassigned) [Example 29]: 0.017 µM and 0.107 µM.
Taken in the same sequence, the figures for `CCC(CO)c1cc(Cl)c2c(c1Cl)C(=O)N(Cc1c(C)cc(C)[nH]c1=O)CC2` (single isomer, unassigned) [Example 30] were 0.004 µM and 0.02 µM.
With `COC(c1cc(Cl)c2c(c1Cl)C(=O)N(Cc1c(C)cc(C)[nH]c1=O)CC2)C1CCN(C(=O)CO)CC1` (single isomer, unassigned) [Example 35, 5,8-dichloro-2-[(4,6-dimethyl-2-oxo-1,2-dihydropyridin-3-yl)methyl]-7-{[1-(hydroxyacetyl)piperidin-4-yl](methoxy)methyl}-3,4-dihydroisoquinolin-1(2H)-one], the IC50 against WT EZH2 [1] (setting [5]) and on EZH2 Mutant Y641N (setting [6]) was 0.002 µM throughout.
As to `COC(c1cc(Cl)c2c(c1Cl)C(=O)N(Cc1c(C)cc(C)[nH]c1=O)CC2)C1CCN(C(=O)CO)CC1` (single isomer, unassigned) [Example 36, 5,8-dichloro-2-[(4,6-dimethyl-2-oxo-1,2-dihydropyridin-3-yl)methyl]-7-{[1-(hydroxyacetyl)piperidin-4-yl](methoxy)methyl}-3,4-dihydroisoquinolin-1(2H)-one], the IC50 at WT EZH2 [1] (setting [5]) was 0.105 µM; on EZH2 Mutant Y641N (setting [6]) it was 0.443 µM. Also, the Ki on WT EZH2 [2] (WT EZH2 Nucleosome assay (10X SAM) Ki (μM)) worked out at 0.136 µM.
As for `Cc1cc(C)c(CN2CCc3c(Cl)cc(C(CO)C4CCOCC4)c(Cl)c3C2=O)c(=O)[nH]1` (single isomer, unassigned) [Example 37], the IC50 against WT EZH2 [1] (setting [5]) is 0.001 µM; on EZH2 Mutant Y641N (setting [6]), 0.002 µM.
The matching figures for `Cc1cc(C)c(CN2CCc3c(Cl)cc(C(CO)C4CCOCC4)c(Cl)c3C2=O)c(=O)[nH]1` (single isomer, unassigned) [Example 38]: 0.378 µM and 0.74 µM.
Consider `Cc1cc(C)c(CN2CCc3c(Cl)cc(C(C)CCO)c(Cl)c3C2=O)c(=O)[nH]1` (single isomer, unassigned) [Example 39], for which the IC50 worked out at 0.04 µM on WT EZH2 [1] (setting [3]) and 0.242 µM on EZH2 Mutant Y641N (setting [4]).
The matching figures for `Cc1cc(C)c(CN2CCc3c(Cl)cc(C(C)CCO)c(Cl)c3C2=O)c(=O)[nH]1` (single isomer, unassigned) [Example 40]: 0.006 µM and 0.024 µM.
For the molecule `Cc1cc(C)c(CN2CCc3c(Cl)cc(C([C@H](C)O)[C@@H](C)O)c(Cl)c3C2=O)c(=O)[nH]1` (single isomer, unassigned) [Example 42], the IC50 came out at 0.012 µM on WT EZH2 [1] (setting [3]) and 0.102 µM on EZH2 Mutant Y641N (setting [4]).
With `Cc1cc(C)c(CN2CCc3c(Cl)cc([C@H](CO)[C@H]4CCOC4)c(Cl)c3C2=O)c(=O)[nH]1` [Example 1, 5,8-dichloro-2-[(4,6-dimethyl-2-oxo-1,2-dihydropyridin-3-yl)methyl]-7-{(1R)-2-hydroxy-1-[(3R)-tetrahydrofuran-3-yl]ethyl}-3,4-dihydroisoquinolin-1(2H)-one], the figures for the IC50 on WT EZH2 [1] (setting [3]) and at EZH2 Mutant Y641N (setting [4]) were 0.001 µM and 0.003 µM, respectively.
The matching figures for `Cc1cc(C)c(CN2CCc3c(Cl)cc(C(C)C)c(Cl)c3C2=O)c(=O)[nH]1` [Example 14, 5,8-dichloro-2-[(4,6-dimethyl-2-oxo-1,2-dihydropyridin-3-yl)methyl]-7-(propan-2-yl)-3,4-dihydroisoquinolin-1(2H)-one]: 0.008 µM and 0.04 µM.
For the molecule `Cc1cc(C)c(CN2CCc3c(Cl)cc([C@H](C)CO)c(Cl)c3C2=O)c(=O)[nH]1` [Example 18], the IC50 at WT EZH2 [1] (setting [3]) came to 0.126 µM; at EZH2 Mutant Y641N (setting [4]), 0.995 µM. Also, at WT EZH2 [2] (setting [7]), the Ki was 0.115 µM.
Taken in the same sequence, the figures for `Cc1cc(C)c(CN2CCc3c(Cl)cc([C@@H](C)CO)c(Cl)c3C2=O)c(=O)[nH]1` [Example 19] were 0.013 µM, 0.132 µM and 0.01 µM.
On to `Cc1cc(C)c(CN2CCc3c(Cl)cc(CC(=O)O)c(Cl)c3C2=O)c(=O)[nH]1` [Example 22], for which the IC50 was found to be 7.82 µM on WT EZH2 [1] (setting [3]) and 95.2 µM on EZH2 Mutant Y641N (setting [4]).
As to `Cc1cc(C)c(CN2CCc3c(Cl)cc(CC4CCN(C(=O)CO)CC4)c(Cl)c3C2=O)c(=O)[nH]1` [Example 23], the IC50 at WT EZH2 [1] (setting [3]) came out at 0.009 µM; at EZH2 Mutant Y641N (setting [4]), 0.067 µM.

By IC50 is commonly meant the midpoint of a concentration-inhibition curve.
